From patent US9765039B2, “Biaryl derivatives as bromodomain inhibitors” (Zenith Epigenetics Ltd., priority 2012, dated 2017)

Key:
[1] = molecular target: T1, Brd4 bromodomain 1 (Homo sapiens, UniProt O60885); assay: Inhibition of tetra-acetylated histone H4 binding to BET bromodomains (TR-FRET); parameters: key: Active: Compounds with an IC50 value less than 30 μM were deemed to be active.; Not Active: Compounds with an IC50 value less than 30 μM were deemed to be active; conditions: first bromodomain of Brd4, tetra-acetylated histone H4 peptide
T1 construct: made in house; host or cells: E. coli BL21(DE3)
Procedure, shortened: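 TR-FRET with N-terminally His-tagged bromodomains (200 nM, E. coli-expressed, Ni affinity and SEC-purified) and biotinylated tetra-acetylated histone H4 peptide (25–50 nM), detected with Eu-cryptate streptavidin and XL665 anti-His antibody. Buffer 30 mM HEPES pH 7.4, 320 mM KF, 0.08% BSA, 0.2% DMSO; 2 h RT. IC50 from decrease in 665/620 nm ratio.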

[2] = system: hApoA-1 mRNA; assay: Up-regulation of hApoA-1 mRNA transcription in Huh7 cells; type: cell-based, human; parameters: key: Active: Compounds with an EC170 value less than 30 μM are deemed to be active.; Not Active: Compounds with an EC170 value less than 30 μM are deemed to be active; conditions: 48 hrs treatment, ApoA-I mRNA
Procedure: In this example, ApoA-I mRNA in tissue culture cells was quantitated to measure the transcriptional up-regulation of ApoA-I when treated with a compound of the present disclosure.
Huh7 cells ([…] per well) were plated in a 96-well plate using 100 μL DMEM per well, (Gibco DMEM supplemented with penicillin/streptomycin and 10% FBS), 24 h before the addition of the compound of interest. After 48 hrs treatment, the spent media was removed from the Huh-7 cells and placed on ice (for immediate use) or at −80° C. (for future use) with the “LDH cytotoxicity assay Kit II” from Abcam. The cells remaining in the plate were rinsed with 100 μL PBS.
Then 85 μL of cell lysis solution was added to each well and incubated for 5-10 minutes at room temperature, to allow for complete cell lysis and detachment. mRNA was then prepared using the “mRNA Catcher PLUS plate” from Life Technologies, according to the protocol supplied. After the last wash, as much wash buffer as possible was aspirated without allowing the wells to dry. Elution Buffer (E3, 80 μL) was then added to each well. mRNA was then eluted by incubating the mRNA Catcher PLUS plate with Elution Buffer for 5 minutes at 68° C., and then 1 minute at 4° C. Catcher plates with mRNA eluted were kept on ice for use or stored at −80° C.
The eluted mRNA isolated was then used in a one-step real-time PCR reaction, using components of the Ultra Sense Kit together with Life Technologies primer-probe mixes. Real-time PCR data was analyzed, using the Ct values, to determine the fold induction of each unknown sample, relative to the control (that is, relative to the control for each independent DMSO concentration).
Compounds with an EC170 value less than 30 μM are deemed to be active.

[3] = system: hIL-6 mRNA; assay: Inhibition of hIL-6 mRNA transcription in LPS-stimulated U937 macrophages; type: cell-based, human; parameters: key: Active: Compounds with an IC50 value less than 30 μM are deemed to be active; conditions: U937 differentiated into macrophages, 1 h pretreatment, lipopolysaccharide 3 h
Procedure, shortened: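 U937 cells differentiated 3 days with 60 ng/mL PMA, pretreated 1 h with compound, then stimulated with […] E. coli LPS for 3 h at 37° C. hIL-6 mRNA quantified by one-step real-time RT-PCR, Ct normalised to internal control and expressed as fold induction relative to control.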

[4] = system: c-myc; assay: Inhibition of c-myc expression in cancer cell lines (mRNA, real-time PCR); type: cell-based; parameters: key: Active: Compounds with an IC50 value less than 30 μM were deemed to be active; conditions: Human AML MV4-11 cells, 3 hours
Procedure, shortened: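 MV4-11 cells (2.5×10^4) exposed to compound or 0.1% DMSO for 3 h at 37° C, then lysed for mRNA isolation. c-myc and cyclophilin cDNAs co-amplified by duplex RT real-time PCR. IC50 from dose-response curve.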

[5] = system: Human AML MV-4-11 cells; assay: Inhibition of cell proliferation in cancer cell lines (CellTiter Aqueous One); type: cell-based; parameters: key: Active: Compounds with an IC50 value less than 30 μM were deemed to be active.; Not Active: Compounds with an IC50 value less than 30 μM were deemed to be active; conditions: 72 hours
Procedure, shortened: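 Exponentially growing MV-4-11 cells were treated immediately with two-fold compound dilutions from 30 µM to 0.2 µM in triplicate for 72 h at 37 °C. Viability was read by MTS (CellTiter Aqueous One) absorbance at 490 nm after 3-4 h; % proliferation vs DMSO gave IC50.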

SMILES | FRET activity (IC50 < 30 μM) [1] | ApoA-1 Activity (EC170 < 30 μM) [2] | IL-6 activity (IC50 < 30 μM) [3] | c-myc activity (IC50 < 30 μM) [4] | cell proliferation activity (IC50 < 30 μM) [5] | melting point [°C]
COc1cc(OC)c2c(=O)[nH]c(-c3ccc(OCCNC(C)C)c(-c4ccc(C(=O)N(C)C)cc4C)n3)nc2c1 [Example 4, 4-(6-(5,7-dimethoxy-4-oxo-3,4-dihydroquinazolin-2-yl)-3-(2-(isopropylamino)ethoxy)pyridin-2-yl)-N,N,3-trimethylbenzamide] | Active | Active | Active | Active | Active | 
COc1cc(OC)c2c(=O)[nH]c(-c3ccc(OCCO)c(-c4cccc([S+](C)[O-])c4)n3)nc2c1 (stereo not drawn) [Example 37, 2-(5-(2-Hydroxyethoxy)-6-(3-(methylsulfinyl)phenyl)pyridin-2-yl)-5,7-dimethoxyquinazolin-4(3H)-one] | Active | Active | Active | Active | Not Active | 272 to 273
COc1cc(OC)c2c(=O)[nH]c(-c3ccc(OCCNC(C)C)c(-c4cccc([S+](C)[O-])c4)n3)nc2c1 (stereo not drawn) [Example 40, 2-(5-(2-(Isopropylamino)ethoxy)-6-(3-(methylsulfinyl)phenyl)pyridin-2-yl)-5,7-dimethoxyquinazolin-4(3H)-one] | Active | Active | Active | Active | Active | 156 to 157
COc1cc(OC)c2c(=O)[nH]c(-c3ccc(OCCO)c(-c4ccc(C(=O)N(C)C)cc4Cl)n3)nc2c1 [Example 5, 3-Chloro-4-(6-(5,7-dimethoxy-4-oxo-3,4-dihydroquinazolin-2-yl)-3-(2-hydroxyethoxy)pyridin-2-yl)-N,N-dimethylbenzamide] | Active | Active | Active | Active | Active | 
CCS(=O)(=O)c1ccc(-c2nc(-c3nc4cc(OC)cc(OC)c4c(=O)[nH]3)ccc2OCCN2CCOCC2)cc1 [Example 43, 2-(6-(4-(Ethylsulfonyl)phenyl)-5-(2-morpholinoethoxy)pyridin-2-yl)-5,7-dimethoxyquinazolin-4(3H)-one] | Active | Active | Active | Active | Active | 
COc1cc(F)cc2nc(-c3ccc(OC4CN(C)C4)c(-c4ccc([S+](C)[O-])cc4)c3)[nH]c(=O)c12 (stereo not drawn) [Example 15, 7-Fluoro-5-methoxy-2-(6-((1-methylazetidin-3-yl)oxy)-4′-(methylsulfinyl)-[1,1′-biphenyl]-3-yl)quinazolin-4(3H)-one] | Active | Active | Active | Active | Not Active | 
CCS(=O)(=O)c1ccc(-c2nc(-c3nc4cc(OC)cc(OC)c4c(=O)[nH]3)ccc2OCCN2CCCC2)cc1 [Example 42, 2-(6-(4-(Ethylsulfonyl)phenyl)-5-(2-(pyrrolidin-1-yl)ethoxy)pyridin-2-yl)-5,7-dimethoxyquinazolin-4(3H)-one] | Active | Not Active | Active | Active | Active | 
COc1cc(OC)c2c(=O)[nH]c(-c3ccc(OCCNC(C)C)c(-c4ccc([S+](C)[O-])cc4)c3)nc2c1 (stereo not drawn) [Example 17, 2-(6-(2-(Isopropylamino)ethoxy)-4′-(methylsulfinyl)biphenyl-3-yl)-5,7-dimethoxyquinazolin-4(3H)-one] | Active | Active | Active | Active | Active | 
COc1cc(OC)c2c(=O)[nH]c(-c3ccc(OCCO)c(-c4ccc(C(=O)N(C)C)cc4)n3)nc2c1 [Example 23, 4-(6-(5,7-Dimethoxy-4-oxo-3,4-dihydroquinazolin-2-yl)-3-(2-hydroxyethoxy)pyridin-2-yl)-N,N-dimethylbenzamide] | Active | Active | Active | Active | Not Active | 
COc1cc(OC)c2c(=O)[nH]c(-c3ccc(OCCO)c(-c4ccc(S(C)(=O)=O)cc4C)n3)nc2c1 [Example 39, 2-(5-(2-Hydroxyethoxy)-6-(2-methyl-4-(methylsulfonyl)phenyl)pyridin-2-yl)-5,7-dimethoxyquinazolin-4(3H)-one] | Active | Active | Active | Active | Active | 
COc1cc(OC)c2c(=O)[nH]c(-c3ccc(OCCO)c(-c4ccc(C(=O)N(C)C)cc4C)n3)nc2c1 [Example 3, 4-(6-(5,7-Dimethoxy-4-oxo-3,4-dihydroquinazolin-2-yl)-3-(2-hydroxyethoxy)pyridin-2-yl)-N,N,3-trimethylbenzamide] | Active | Active | Active | Not Active | Not Active | 
COc1cc(OC)c2c(=O)[nH]c(-c3ccc(OCCNC(C)C)c(-c4ccc(C(=O)N(C)C)cc4Cl)n3)nc2c1 [Example 6, 3-Chloro-4-(6-(5,7-dimethoxy-4-oxo-3,4-dihydroquinazolin-2-yl)-3-(2-(isopropylamino)ethoxy)pyridin-2-yl)-N,N-dimethylbenzamide] | Active | Active | Active | Active | Active | 
COc1cc(OC)c2c(=O)[nH]c(-c3ccc(OCCNC(C)C)c(-c4ccc(S(C)(=O)=O)cc4)c3)nc2c1 [Example 44, 2-(6-(2-(Isopropylamino)ethoxy)-4′-(methylsulfonyl)-[1,1′-biphenyl]-3-yl)-5,7-dimethoxyquinazolin-4(3H)-one] | Active | Active | Active | Active | Active | 
COc1cc(OC)c2c(=O)[nH]c(-c3ccc(OC4CNC4)c(-c4ccc(C#N)cc4)c3)nc2c1 [Example 18, 2′-(Azetidin-3-yloxy)-5′-(5,7-dimethoxy-4-oxo-3,4-dihydroquinazolin-2-yl)-[1,1′-biphenyl]-4-carbonitrile] | Active | Active | Active | Active | Not Active | 
